{
  "source": "patent US20130267500A1",
  "about": "“5-HT2C RECEPTOR AGONISTS IN THE TREATMENT OF DISORDERS AMELIORATED BY REDUCTION OF NORE[…]” (Arena Pharmaceuticals, Inc., priority 2010, published 2013)",
  "key": {"epinephrine": {"tested_on": "epinephrine", "assay": "56-day placebo-controlled study: 24 h urine epinephrine", "format": "in vivo, human", "details": "after 7 or 56 days of treatment; small number of evaluable samples", "experimental": "(§1) A fifty-six-day, double-blind, randomized, placebo-controlled, parallel-group study was conducted to assess the effects of lorcaserin hydrochloride administration to overweight and obese male and female patients. The study was completed according to the guidelines of Good Clinical Practice and was conducted in full compliance with the World Medical Association Declaration of Helsinki and its most recent amendments.\n(§2) Fifty-seven overweight or obese adult male and female subjects aged 18 to 65 years inclusive were randomized to one of two treatment groups: placebo or lorcaserin hydrochloride (10 mg) twice-a-day (BID) for 56 days. The majority of subjects were female (68.4%) and Caucasian (63.2%). […]\n(§3) The analyses of all efficacy variables used the Modified Intent-to-Treat Population (MITT) population. Patient data were analyzed according to the treatment assigned at randomization, regardless of the treatment received during the course of the trial. […] Compliance was assessed by the number of remaining tablets. […]\n(§4) Mean concentrations and mean change from baseline in 24 h urine epinephrine and norepinephrine at Day 7 and Day 56 were assessed. […] Epinephrine was below the limit of quantitation in 44 of 55 available patient samples at Day 7 and 33 of 52 available samples at Day 56. […]"}, "[1]": {"details": "cited from earlier work"}, "[2]": {"assay": "56-day placebo-controlled study: safety (adverse events, ECG, BDI-II)", "format": "in vivo, human", "experimental": "as §1\n(§5) Fifty-seven overweight or obese adult male and female subjects aged 18 to 65 years inclusive were randomized to one of two treatment groups: placebo or lorcaserin hydrochloride (10 mg) twice-a-day (BID) for 56 days. The majority of subjects were female (68.4%) and Caucasian (63.2%). […] Patients were required to participate in the Arena Healthy Lifestyle Program®, designed specifically for this study, which included a 600 kcal deficit diet and 30 minutes of moderate exercise per day.\n(§6) Each subject underwent screening procedures within 28 days or sooner, prior to dosing on Day 1, over 3 screening visits (Days −28, −14, and −7). This was followed by an initial inpatient period of 4 days, a 3-day outpatient period, a second 4-day inpatient period, a second outpatient period over 45 days which included 7 visits, and a final 3-day inpatient period. Fifty-three subjects completed the study.\n(§7) Lorcaserin formulation is composed of white tablets containing lorcaserin (active) and excipients (silicified microcrystalline cellulose NF, hydroxypropyl cellulose NF, croscarmellose sodium NF, magnesium stearate NF and Opadry® II white). The placebo is composed of white tablets containing excipients.\n(§8) All enrolled patients received two oral doses per day (one dose in the morning prior to breakfast and one dose in the evening prior to dinner) of study medication (lorcaserin or placebo) for 56 days. Dosing was performed in a double-blind manner so that neither the patient nor the Investigator knew which treatment had been assigned. Patients were told to take the study medication each morning and evening approximately 60 minutes before breakfast and dinner and were encouraged to take the study medication with an adequate amount of water (8 oz or 240 mL). Patients were asked not to crush, break, chew, or dissolve the tablets.\nA 12-lead ECG was performed at screening (baseline), and during the exit visit (Day 57). […] Individual subjects experienced abnormalities at all time points including baseline. […] None of the abnormalities were clinically significant.\nSerial assessments of depression were performed during the study at Days −2, +6 and +55 (Beck Depression Inventory-II (BDI-II))."}, "norepinephrine": {"tested_on": "norepinephrine", "assay": "56-day placebo-controlled study: 24 h urine norepinephrine", "format": "in vivo, human", "details": "10 mg BID", "experimental": "as §1, §2, §3, §4"}, "[3]": {"assay": "56-day placebo-controlled study of lorcaserin hydrochloride: body weight", "format": "in vivo, human", "details": "for Bodyweight, Mean: lorcaserin hydrochloride 10 mg BID oral", "experimental": "as §1, §5, §6, §7, §8\nPatients were required to fast for 10 hours prior to each study visit that requires a blood sample for clinical laboratory tests. Participants were weighed (in duplicate) at each study visit wearing a hospital gown. Efforts were made to schedule study visits prior to 10:00 a.m. to capture the fasted body weight and to reduce the variability in body weight normally observed throughout the day. Weights were measured in kilograms (kg).\nThe analyses of all efficacy variables used the Modified Intent-to-Treat Population (MITT) population. Patient data were analyzed according to the treatment assigned at randomization, regardless of the treatment received during the course of the trial. Inclusion was dependent on the presence of a baseline measurement, consumption of at least one study dose, and a post-randomization measurement. Patients were instructed to bring their unused study drug with them to each study visit. Compliance was assessed by the number of remaining tablets. Change from baseline or percent change from baseline is defined as the change from Day 1 (randomization) measurement. If the Day 1 measurement was not available, the last non-missing pre-randomization measurement was used as the baseline value, otherwise baseline was considered missing. […]"}, "5-HT2A receptors": {"biological_target": "5-HT2A receptors (Homo sapiens, UniProt P28223)", "sequence (P28223 whole entry)": "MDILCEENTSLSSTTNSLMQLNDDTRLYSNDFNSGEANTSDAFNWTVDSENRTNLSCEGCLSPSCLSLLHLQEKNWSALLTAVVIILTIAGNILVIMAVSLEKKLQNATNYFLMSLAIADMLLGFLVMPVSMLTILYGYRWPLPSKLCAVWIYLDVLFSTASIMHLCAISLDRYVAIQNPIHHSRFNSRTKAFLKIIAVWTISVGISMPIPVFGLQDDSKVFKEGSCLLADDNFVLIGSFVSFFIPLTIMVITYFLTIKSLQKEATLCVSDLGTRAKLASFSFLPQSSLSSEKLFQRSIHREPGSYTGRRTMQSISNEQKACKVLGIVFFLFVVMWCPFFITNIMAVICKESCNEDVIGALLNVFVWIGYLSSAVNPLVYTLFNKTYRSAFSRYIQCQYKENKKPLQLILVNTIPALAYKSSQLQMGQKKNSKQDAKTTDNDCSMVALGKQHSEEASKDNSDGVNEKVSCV", "details": "cited from earlier work"}, "human 5-HT2C receptors": {"biological_target": "T1, human 5-HT2C receptors (Homo sapiens, UniProt P28335)", "T1 sequence (P28335 33-458)": "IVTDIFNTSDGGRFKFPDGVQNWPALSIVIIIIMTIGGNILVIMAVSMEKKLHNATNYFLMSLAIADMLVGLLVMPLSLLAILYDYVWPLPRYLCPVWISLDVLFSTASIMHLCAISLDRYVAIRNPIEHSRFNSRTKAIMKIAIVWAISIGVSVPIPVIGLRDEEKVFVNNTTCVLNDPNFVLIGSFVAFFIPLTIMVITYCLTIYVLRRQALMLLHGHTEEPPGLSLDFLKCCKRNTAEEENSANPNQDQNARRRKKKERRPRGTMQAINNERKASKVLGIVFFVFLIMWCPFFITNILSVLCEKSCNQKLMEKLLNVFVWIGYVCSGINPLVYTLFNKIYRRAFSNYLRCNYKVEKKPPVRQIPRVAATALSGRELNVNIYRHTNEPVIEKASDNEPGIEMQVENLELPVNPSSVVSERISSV", "details": "cited from earlier work"}, "5-HT2B receptors": {"biological_target": "5-HT2B receptors (Homo sapiens, UniProt P41595)", "sequence (P41595 whole entry)": "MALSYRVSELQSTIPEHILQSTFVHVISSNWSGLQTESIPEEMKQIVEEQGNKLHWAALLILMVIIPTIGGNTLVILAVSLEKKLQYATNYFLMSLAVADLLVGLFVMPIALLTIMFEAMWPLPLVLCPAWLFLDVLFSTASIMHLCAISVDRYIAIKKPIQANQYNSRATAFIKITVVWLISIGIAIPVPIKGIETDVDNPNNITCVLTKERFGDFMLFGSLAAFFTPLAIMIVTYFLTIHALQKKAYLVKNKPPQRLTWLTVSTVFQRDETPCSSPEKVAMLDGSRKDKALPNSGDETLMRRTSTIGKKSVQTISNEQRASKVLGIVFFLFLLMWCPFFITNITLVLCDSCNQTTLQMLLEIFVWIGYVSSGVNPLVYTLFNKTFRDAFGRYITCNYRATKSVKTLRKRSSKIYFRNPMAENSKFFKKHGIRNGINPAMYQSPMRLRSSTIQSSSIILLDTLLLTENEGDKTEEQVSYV", "details": "cited from earlier work"}, "[4]": {"details": "phase 3 program, up to two years"}, "[5]": {"details": "lorcaserin group, 10 mg BID, 56 days"}},
  "data": [
    {"smiles": "C[C@H]1CNCCc2ccc(Cl)cc21", "note": "[Lorcaserin, (R)-8-Chloro-1-methyl-2,3,4,5-tetrahydro-1H-3-benzazepine]", "values": [
      {"measurement": "24 h epinephrine excretion", "setting": "epinephrine", "result": "no change"},
      {"measurement": "excess body weight lost (normal BMI of 25)", "setting": "[1]; first phase 3 trial", "result": "about one-third"},
      {"measurement": "patients achieving at least 5% weight loss", "setting": "[1]; [4]", "result": "About two-thirds"},
      {"measurement": "patients achieving at least 10% weight loss", "setting": "[1]; [4]", "result": "over one-third"},
      {"measurement": "average weight lost, of their weight", "setting": "[1]; phase 3 program", "result": "about 8%"},
      {"measurement": "depression or suicidal ideation", "setting": "[1]; phase 3 program", "result": "no signal"},
      {"measurement": "heart rate and blood pressure", "setting": "[1]; phase 3 program", "result": "went down"},
      {"measurement": "risk of cardiac valvulopathy", "setting": "[1]; phase 3 program", "result": "did not increase the risk"},
      {"measurement": "average weight loss, top quartile of patients", "setting": "[1]; second phase 3 trial", "result": 35, "unit": "pounds"},
      {"measurement": "average weight loss, top quartile of patients, of body weight", "setting": "[1]; second phase 3 trial", "result": 16, "unit": "%"},
      {"measurement": "deaths or serious adverse events", "setting": "[2]; 10 mg BID, 56 days", "result": "No deaths or serious adverse events occurred"},
      {"measurement": "early terminations due to AEs", "setting": "[2]; 10 mg BID, 56 days", "result": "no early terminations due to AEs"},
      {"measurement": "incidence of depression related adverse events", "setting": "[2]; 10 mg BID, 56 days", "result": "did not increase"},
      {"measurement": "tolerability", "setting": "[2]; 10 mg BID, 56 days", "result": "generally well tolerated"},
      {"measurement": "Beck Depression Inventory-II (BDI-II), difference between lorcaserin and placebo groups", "setting": "[2]; Days -2, +6 and +55", "result": "No meaningful differences"},
      {"measurement": "Headache, subjects with at least 1 event", "setting": "[2]; lorcaserin group (29 randomized), 10 mg BID, 56 days", "result": 11, "unit": "subjects"},
      {"measurement": "Dizziness, subjects reporting", "setting": "[2]; [5]", "result": 3, "unit": "subjects"},
      {"measurement": "Headache, rate of subjects with at least 1 event", "setting": "[2]; [5]", "result": 37.9, "unit": "%"},
      {"measurement": "12-lead ECG effects", "setting": "[2]; screening vs exit visit (Day 57)", "result": "no apparent treatment-related effects on ECG"},
      {"measurement": "24 h norepinephrine excretion in urine", "setting": "norepinephrine; after 7 days (p<0.0001)", "result": "significant decrease"},
      {"measurement": "24 h norepinephrine excretion in urine", "setting": "norepinephrine; after 56 days (p<0.001)", "result": "significant decrease"},
      {"measurement": "Bodyweight, Mean", "setting": "[3]; Day 1 (baseline), overweight/obese patients", "result": 96.59, "unit": "kg"},
      {"measurement": "Bodyweight, Mean", "setting": "[3]; Day 6", "result": 96.67, "unit": "kg"},
      {"measurement": "Bodyweight, Mean", "setting": "[3]; Day 55", "result": 93.84, "unit": "kg"},
      {"measurement": "weight loss", "setting": "[3]; at 6 days, 10 mg BID", "result": "No significant weight loss"},
      {"measurement": "weight loss as compared to placebo", "setting": "[3]; at 55 days, 10 mg BID", "result": "Significantly greater weight loss"}
    ]},
    {"smiles": "CN(C)[C@@H]1Cc2ccccc2[C@@H](c2ccccc2)C1", "note": "[(1R,3S)-(−)-trans-1-phenyl-3-dimethylamino-1,2,3,4-tetrahydronaphthalene]", "values": [
      {"measurement": "activity at 5-HT2A receptors", "setting": "5-HT2A receptors", "result": "antagonist"},
      {"measurement": "activity at human 5-HT2C receptors", "setting": "human 5-HT2C receptors", "result": "agonist"},
      {"measurement": "activity at 5-HT2B receptors", "setting": "5-HT2B receptors", "result": "antagonist"}
    ]}
  ]
}
